According to the NIST ThermoML archive (doi:10.1021/acs.jced.8b00403):
Numbers after ± are expanded uncertainties.

Test: wn = mass fraction of the nth substance listed
Conditions: 101.33 kPa, Liquid; for viscosity: Concentric cylinders viscometry; for mass density: Vibrating tube method

OCCCO [propan-1,3-diol] + O
Conditions | mass density [kg/m3] | viscosity [mPa·s]
253.15 K, w1 = 0.4453 | 1053.7 ± 8 | 40.11 ± 12
253.15 K, w1 = 0.501 | 1058 ± 8 | 49.09 ± 15
253.15 K, w1 = 0.6123 | 1068.2 ± 8 | 85.87 ± 26
253.15 K, w1 = 0.7236 | 1074.9 ± 8 | 158.67 ± 48
253.15 K, w1 = 0.8349 | 1078.5 ± 8 | 267.81 ± 81
253.15 K, w1 = 0.9277 | 1079.6 ± 8 | 418.56 ± 130
253.15 K, w1 = 1 | 1078.2 ± 8 | 574.39 ± 170
258.15 K, w1 = 0.4453 | 1051.8 ± 8 | 29.02 ± 8.7
258.15 K, w1 = 0.501 | 1055.9 ± 8 | 35.24 ± 11
258.15 K, w1 = 0.6123 | 1065.8 ± 8 | 63.15 ± 19
258.15 K, w1 = 0.7236 | 1072.2 ± 8 | 110.64 ± 33
258.15 K, w1 = 0.8349 | 1075.5 ± 8 | 184.18 ± 55
258.15 K, w1 = 0.9277 | 1076.5 ± 8 | 293.3 ± 88
258.15 K, w1 = 1 | 1075.4 ± 8 | 409.88 ± 120
263.15 K, w1 = 0.334 | 1035.2 ± 8 | 12.02 ± 3.6
263.15 K, w1 = 0.4453 | 1047.7 ± 8 | 19.91 ± 6
263.15 K, w1 = 0.501 | 1052.5 ± 8 | 24.97 ± 7.5
263.15 K, w1 = 0.6123 | 1062.1 ± 8 | 44.2 ± 13
263.15 K, w1 = 0.7236 | 1068.4 ± 8 | 76.18 ± 23
263.15 K, w1 = 0.8349 | 1072.2 ± 8 | 132.29 ± 40
263.15 K, w1 = 0.9277 | 1073.2 ± 8 | 206.53 ± 62
263.15 K, w1 = 1 | 1072.3 ± 8 | 289.5 ± 87
268.15 K, w1 = 0.2226 | 1022.1 ± 8 | 5.908 ± 1.8
268.15 K, w1 = 0.334 | 1033.9 ± 8 | 9.252 ± 2.8
268.15 K, w1 = 0.4453 | 1045.7 ± 8 | 15.12 ± 4.5
268.15 K, w1 = 0.501 | 1050.3 ± 8 | 18.81 ± 5.6
268.15 K, w1 = 0.6123 | 1059.5 ± 8 | 32.82 ± 9.8
268.15 K, w1 = 0.7236 | 1065.6 ± 8 | 55.72 ± 17
268.15 K, w1 = 0.8349 | 1069.3 ± 8 | 95.75 ± 29
268.15 K, w1 = 0.9277 | 1070.1 ± 8 | 149.24 ± 45
268.15 K, w1 = 1 | 1069 ± 8 | 207.88 ± 62
273.15 K, w1 = 0.1113 | 1009.7 ± 8 | 2.894 ± 0.87
273.15 K, w1 = 0.2226 | 1021.3 ± 8 | 4.695 ± 1.4
273.15 K, w1 = 0.334 | 1032.5 ± 8 | 7.257 ± 2.2
273.15 K, w1 = 0.4453 | 1043.7 ± 8 | 11.74 ± 3.5
273.15 K, w1 = 0.501 | 1048.1 ± 8 | 14.52 ± 4.4
273.15 K, w1 = 0.6123 | 1056.9 ± 8 | 24.88 ± 7.5
273.15 K, w1 = 0.7236 | 1062.7 ± 8 | 41.58 ± 12
273.15 K, w1 = 0.8349 | 1066.3 ± 8 | 70.71 ± 21
273.15 K, w1 = 0.9277 | 1067.1 ± 8 | 109.69 ± 33
273.15 K, w1 = 1 | 1065.9 ± 8 | 152.75 ± 46
283.15 K, w1 = 0.1113 | 1008.8 ± 8 | 2.055 ± 0.62
283.15 K, w1 = 0.2226 | 1019.2 ± 8 | 3.165 ± 0.95
283.15 K, w1 = 0.334 | 1029.2 ± 8 | 4.748 ± 1.4
283.15 K, w1 = 0.4453 | 1039.3 ± 8 | 7.451 ± 2.2
283.15 K, w1 = 0.501 | 1043.3 ± 8 | 9.1 ± 2.7
283.15 K, w1 = 0.6123 | 1051.4 ± 8 | 15.1 ± 4.5
283.15 K, w1 = 0.7236 | 1056.8 ± 8 | 24.57 ± 7.4
283.15 K, w1 = 0.8349 | 1060.2 ± 8 | 40.76 ± 12
283.15 K, w1 = 0.9277 | 1061 ± 8 | 62.32 ± 19
283.15 K, w1 = 1 | 1059.8 ± 8 | 86.48 ± 26
293.15 K, w1 = 0.1113 | 1006.7 ± 8 | 1.529 ± 0.46
293.15 K, w1 = 0.2226 | 1016.3 ± 8 | 2.251 ± 0.68
293.15 K, w1 = 0.334 | 1025.4 ± 8 | 3.318 ± 1
293.15 K, w1 = 0.4453 | 1034.5 ± 8 | 5.035 ± 1.5
293.15 K, w1 = 0.501 | 1038.3 ± 8 | 6.074 ± 1.8
293.15 K, w1 = 0.6123 | 1045.7 ± 8 | 9.77 ± 2.9
293.15 K, w1 = 0.7236 | 1050.9 ± 8 | 15.48 ± 4.6
293.15 K, w1 = 0.8349 | 1054 ± 8 | 25 ± 7.5
293.15 K, w1 = 0.9277 | 1054.7 ± 8 | 37.6 ± 11
293.15 K, w1 = 1 | 1053.6 ± 8 | 52.01 ± 16
303.15 K, w1 = 0.1113 | 1004.1 ± 8 | 1.189 ± 0.36
303.15 K, w1 = 0.2226 | 1012.9 ± 8 | 1.689 ± 0.51
303.15 K, w1 = 0.334 | 1021.1 ± 8 | 2.421 ± 0.73
303.15 K, w1 = 0.4453 | 1029.5 ± 8 | 3.585 ± 1.1
303.15 K, w1 = 0.501 | 1033 ± 8 | 4.306 ± 1.3
303.15 K, w1 = 0.6123 | 1039.9 ± 8 | 6.724 ± 2
303.15 K, w1 = 0.7236 | 1044.8 ± 8 | 10.32 ± 3.1
303.15 K, w1 = 0.8349 | 1047.8 ± 8 | 16.26 ± 4.9
303.15 K, w1 = 0.9277 | 1048.5 ± 8 | 24.03 ± 7.2
303.15 K, w1 = 1 | 1047.4 ± 8 | 32.92 ± 9.9
313.15 K, w1 = 0.1113 | 1000.4 ± 8 | 0.9825 ± 0.29
313.15 K, w1 = 0.2226 | 1008.3 ± 8 | 1.332 ± 0.4
313.15 K, w1 = 0.334 | 1016.3 ± 8 | 1.857 ± 0.56
313.15 K, w1 = 0.4453 | 1023.9 ± 8 | 2.659 ± 0.8
313.15 K, w1 = 0.501 | 1027.3 ± 8 | 3.148 ± 0.94
313.15 K, w1 = 0.6123 | 1033.8 ± 8 | 4.725 ± 1.4
313.15 K, w1 = 0.7236 | 1038.6 ± 8 | 7.184 ± 2.2
313.15 K, w1 = 0.8349 | 1041.5 ± 8 | 11.05 ± 3.3
313.15 K, w1 = 0.9277 | 1042.2 ± 8 | 16.04 ± 4.8
313.15 K, w1 = 1 | 1041.1 ± 8 | 21.79 ± 6.5
323.15 K, w1 = 0.1113 | 996.2 ± 8 | 0.7887 ± 0.24
323.15 K, w1 = 0.2226 | 1003.5 ± 8 | 1.076 ± 0.32
323.15 K, w1 = 0.334 | 1010.8 ± 8 | 1.465 ± 0.44
323.15 K, w1 = 0.4453 | 1018.1 ± 8 | 2.051 ± 0.62
323.15 K, w1 = 0.501 | 1021.3 ± 8 | 2.401 ± 0.72
323.15 K, w1 = 0.6123 | 1027.4 ± 8 | 3.522 ± 1.1
323.15 K, w1 = 0.7236 | 1032.1 ± 8 | 5.219 ± 1.6
323.15 K, w1 = 0.8349 | 1035 ± 8 | 7.801 ± 2.3
323.15 K, w1 = 0.9277 | 1035.8 ± 8 | 11.15 ± 3.3
323.15 K, w1 = 1 | 1034.8 ± 8 | 15 ± 4.5
333.15 K, w1 = 0.1113 | 991.1 ± 8 | 0.6769 ± 0.2
333.15 K, w1 = 0.2226 | 998.3 ± 8 | 0.8845 ± 0.27
333.15 K, w1 = 0.334 | 1005.2 ± 8 | 1.194 ± 0.36
333.15 K, w1 = 0.4453 | 1011.8 ± 8 | 1.641 ± 0.49
333.15 K, w1 = 0.501 | 1014.8 ± 8 | 1.885 ± 0.57
333.15 K, w1 = 0.6123 | 1020.9 ± 8 | 2.698 ± 0.81
333.15 K, w1 = 0.7236 | 1025.4 ± 8 | 3.9 ± 1.2
333.15 K, w1 = 0.8349 | 1028.3 ± 8 | 5.713 ± 1.7
333.15 K, w1 = 0.9277 | 1029.3 ± 8 | 8.023 ± 2.4
333.15 K, w1 = 1 | 1028.4 ± 8 | 10.72 ± 3.2
343.15 K, w1 = 0.1113 | 985.3 ± 8 | 0.5651 ± 0.17
343.15 K, w1 = 0.2226 | 992.4 ± 8 | 0.7245 ± 0.22
343.15 K, w1 = 0.334 | 999.3 ± 8 | 0.9821 ± 0.29
343.15 K, w1 = 0.4453 | 1005.3 ± 8 | 1.301 ± 0.39
343.15 K, w1 = 0.501 | 1008.4 ± 8 | 1.512 ± 0.45
343.15 K, w1 = 0.6123 | 1014.1 ± 8 | 2.123 ± 0.64
343.15 K, w1 = 0.7236 | 1018.5 ± 8 | 3.01 ± 0.9
343.15 K, w1 = 0.8349 | 1021.5 ± 8 | 4.303 ± 1.3
343.15 K, w1 = 0.9277 | 1022.6 ± 8 | 5.933 ± 1.8
343.15 K, w1 = 1 | 1021.9 ± 8 | 7.855 ± 2.4
353.15 K, w1 = 0.1113 | 978.6 ± 8 | 0.4871 ± 0.15
353.15 K, w1 = 0.2226 | 986.3 ± 8 | 0.6668 ± 0.2
353.15 K, w1 = 0.334 | 992.6 ± 8 | 0.8548 ± 0.26
353.15 K, w1 = 0.4453 | 998.5 ± 8 | 1.09 ± 0.33
353.15 K, w1 = 0.501 | 1001.2 ± 8 | 1.21 ± 0.36
353.15 K, w1 = 0.6123 | 1006.8 ± 8 | 1.731 ± 0.52
353.15 K, w1 = 0.7236 | 1011.7 ± 8 | 2.423 ± 0.73
353.15 K, w1 = 0.8349 | 1014.4 ± 8 | 3.317 ± 1
353.15 K, w1 = 0.9277 | 1015.8 ± 8 | 4.515 ± 1.4
353.15 K, w1 = 1 | 1015.3 ± 8 | 5.916 ± 1.8
